Reference: US4774330A, “Cephalosporin intermediates” (Hoffmann-La Roche Inc., priority 1980, dated 1988)
Structures can show the parent of a compound that is named as a salt. Where two headings read alike, the source gives them in different places.

What was measured:
Klebsiella pneumoniae = test: MIC in vitro, Klebsiella pneumoniae; type: cell-based
Description: (§1) The following products were tested:
(§2) The following results relate to the minimum inhibitory concentration (MIC) in vitro (μg/ml): […]

Enterobacter cloacae = test: MIC in vitro, Enterobacter cloacae; type: cell-based
Description: as §1, §2

Escherichia coli = test: MIC in vitro, Escherichia coli; type: cell-based
Description: as §1, §2

Streptococcus pneumoniae = test: MIC in vitro, Streptococcus pneumoniae; type: cell-based
Description: as §1, §2

Serratia marcescens = test: MIC in vitro, Serratia marcescens; type: cell-based
Description: as §1, §2

Streptococcus pyogenes = test: MIC in vitro, Streptococcus pyogenes; type: cell-based
Description: as §1, §2

Proteus rettgeri = test: MIC in vitro, Proteus rettgeri; type: cell-based; conditions: Providencia rettgeri, strain 2
Description: as §1, §2

Proteus mirabilis = test: MIC in vitro, Proteus mirabilis; type: cell-based
Description: as §1, §2

Proteus morganii = test: MIC in vitro, Proteus morganii; type: cell-based; conditions: Morganella morganii, strain 2
Description: as §1, §2

Streptococcus viridans = test: MIC in vitro, Streptococcus viridans; type: cell-based
Description: as §1, §2

Citrobacter freundii = test: MIC in vitro, Citrobacter freundii; type: cell-based
Description: as §1, §2

[1] = system: Staphylococcus epidermidis; test: MIC in vitro, Staphylococcus epidermidis; type: cell-based
Description: as §1, §2

[2] = toxicity, 24 hours values; type: in vivo; conditions: in vivo, 24 hours value, read-out: Tolerated dosage
Description: The compounds in accordance with the invention are non-toxic, as will be evident from the following data for the 24 hours values of products A and B: […]

Proteus inconstans = test: MIC in vitro, Proteus inconstans; type: cell-based; conditions: Providencia alcalifaciens
Description: as §1, §2

Streptococcus faecalis = test: MIC in vitro, Streptococcus faecalis; type: cell-based; conditions: Enterococcus faecalis
Description: as §1, §2

Proteus vulgaris = test: MIC in vitro, Proteus vulgaris; type: cell-based
Description: as §1, §2

Enterobacter aerogenes = test: MIC in vitro, Enterobacter aerogenes; type: cell-based; conditions: Klebsiella aerogenes
Description: as §1, §2

Staphylococcus aureus = test: MIC in vitro, Staphylococcus aureus; type: cell-based
Description: as §1, §2

## Cn1nc(OCOC(=O)C(C)(C)C)c(=O)nc1SCC1=C(C(=O)O)N2C(=O)[C@@H](NC(=O)/C(=N\O)c3csc(N)n3)[C@H]2SC1 [Product B, (6R,7R)-7-[2-(2-Amino-4-thiazolyl)-2-(Z-hydroxyimino)acetamindo]-3-[[[2,5-dihydro-2-methyl-5-oxo-6-[(pivaloyloxy)methoxy]-as-triazin-3-yl]thio]methyl]-8-oxo-5-thia-1-azabicyclo[4.2.0]oct-2-ene-2-carboxylic acid sodium salt]
Klebsiella pneumoniae; strain 2
  MIC: 1.6 mg/L
Klebsiella pneumoniae; strain 3
  MIC: 0.4 mg/L
Klebsiella pneumoniae; strain 4
  MIC: 0.8 mg/L
Enterobacter cloacae; strain 3
  MIC: > 25 mg/L
Enterobacter cloacae; strain 4
  MIC: 6.3 mg/L
Escherichia coli; strain 5
  MIC: 0.4 mg/L
Escherichia coli; strain 6
  MIC: 0.2 mg/L
Escherichia coli; strain 7
  MIC: 0.05 mg/L
Escherichia coli; strain 8
  MIC: 0.8 mg/L
Streptococcus pneumoniae
  MIC: 0.1 mg/L
Serratia marcescens; strain 10
  MIC: 6.3 mg/L
Serratia marcescens; strain 11
  MIC: 12.5 mg/L
Serratia marcescens; strain 12
  MIC: 1.6 mg/L
Streptococcus pyogenes; strain 1
  MIC: 0.025 mg/L
Streptococcus pyogenes; strain 2
  MIC: 0.025 mg/L
Proteus rettgeri
  MIC: 0.4 mg/L
Proteus mirabilis; strain 2
  MIC: 0.4 mg/L
Proteus mirabilis; strain 3
  MIC: 1.6 mg/L
Proteus mirabilis; strain 4
  MIC: 0.8 mg/L
Proteus morganii
  MIC: 1.6 mg/L
Streptococcus viridans
  MIC: 0.4 mg/L
Citrobacter freundii; strain 2
  MIC: 3.1 mg/L
Citrobacter freundii; strain 3
  MIC: 0.4 mg/L
[1]
  MIC: 0.4 mg/L
[2]; sc, subcutaneous
  MTD at 24 h: > 4000 mg/kg
[2]; oral
  MTD at 24 h: > 5000 mg/kg
Proteus inconstans; strain 2
  MIC: 0.2 mg/L
Proteus inconstans; strain 3
  MIC: ≤ 0.025 mg/L
Streptococcus faecalis; strain 1
  MIC: 6.3 mg/L
Streptococcus faecalis; strain 2
  MIC: > 25 mg/L
Proteus vulgaris; strain 4
  MIC: 12.5 mg/L
Proteus vulgaris; strain 5
  MIC: 0.8 mg/L
Proteus vulgaris; strain 6
  MIC: 0.8 mg/L
Enterobacter aerogenes; strain 1
  MIC: 0.2 mg/L
Enterobacter aerogenes; strain 2
  MIC: 1.6 mg/L
Staphylococcus aureus; strain 3
  MIC: 0.4 mg/L
Staphylococcus aureus; strain 4
  MIC: 0.8 mg/L
Staphylococcus aureus; strain 5
  MIC: 0.4 mg/L
Staphylococcus aureus; strain 6
  MIC: 0.8 mg/L
